Measurements: article PMC3983391 (Journal of medicinal chemistry, 2014)
“Also recorded” adds a separate entry of the source.

Legend:
[1] = Toxicity in the nude mouse MCF7 xenograft study; details: nude mice; for death: dead/total
[2] = data reported previously; cited from earlier work
[3] = system: human tumor cell line (HTCL) panel (A549, KB, KBvin, DU145); test: SRB antiproliferative activity, ranges over the HTCL panel; format: cell-based; details: read-out: GI50 range over HTCL panel
[4] = system: A549 cells; test: Immunocytochemistry of cellular microtubules; format: cell-based, human; details: A549, 24 h; 5f 3 nM, paclitaxel 100 nM, colchicine 100 nM
[5] = system: tubulin (vinblastine site); test: Competitive inhibition assay, BODIPY FL-vinblastine binding to tubulin; parameters: species or system dog; details: tubulin 4 μM, BODIPY FL-vinblastine 2 μM; even at 30–100 μM
[6] = system: A549 cells; test: Cell cycle analysis by propidium iodide flow cytometry; format: cell-based, human; details: A549, 24 h; 5f 3 nM, colchicine 300 nM
[7] = system: MCF7 tumor xenografts; test: Nude mouse MCF7 xenograft antitumor assay; format: in vivo; details: 4 mg/kg i.v. every 3 days; p < 0.05 from day 10 onward

| SMILES | GI50 [3] [nM] | other results |
| --- | --- | --- |
| COc1ccc2c(c1)CCCN2c1nc(Cl)nc2ccccc12 [1a, 2-chloro-4-(6-methoxy-3,4-dihydroquinolin-1(2H)-yl)quinazoline] | – | death ([1]; 4 mg/kg i.v., Q3D × 6): 0/5 |
| COc1ccc2c(c1)CCCN2c1nc(C)nc2ccccc12 [1b, 2-methyl-4-(6-methoxy-3,4-dihydroquinolin-1(2H)-yl)quinazoline] | – | death ([1]; 4 mg/kg i.v., Q3D × 6): 1/6; human liver microsome t1/2 [2]: 25.2 min |
| Cc1ccc2c(c1)CCCN2c1nc(Cl)nc2ccccc12 [4a, 2-Chloro-4-(N-(6-methyl-3,4-dihydroquinolinyl))quinazoline] | 43 to 57 | – |
| Cc1ccc2c(c1)CCCN2c1nc(C)nc2ccccc12 [4b, 2-Methyl-4-(N-(6-methyl-1,2,3,4-tetrahydroquinolinyl))-quinazoline] | 169 to 211 | – |
| Cc1nc(N2CCCc3cc(Br)ccc32)c2ccccc2n1 [4c, 4-(N-(6-Bromo-1,2,3,4-tetrahydroquinolinyl))-2-methylqui-nazoline] | 169 to 211 | – |
| COc1ccc2c(c1)NC(=O)CN2c1nc(C)nc2ccccc12 [5f, 2-Methyl-4-(7-methoxy-2-oxo-3,4-dihydroquinoxalin-4(1H)-yl)quinazoline] | 1.9 to 3.2 | toxicity observation ([1]; 4 mg/kg i.v. every 3 days, 4 mg/kg): toxicity and death; also recorded: all seven mice died; also recorded: death of all treated mice; death ([1]; 4 mg/kg i.v., Q3D × 6): 7/7; effect on cellular microtubule network [4]: microtubule network disappeared; effect on binding of BODIPY FL-vinblastine to tubulin [5]: did not significantly change; also recorded: did not compete; effect on the cell cycle [6]: arrested at the G2/M phase |
| COc1ccc2c(c1)N(C)C(=O)CN2c1nc(C)nc2ccccc12 [5g, 2-Methyl-4-(1-methyl-7-methoxy-2-oxo-3,4-dihydroquinox-alin-4-yl)quinazoline] | 17 to 25 | body weight change (%) ([1]; 4 mg/kg i.v., Q3D × 6): +2.28%; death ([1]; 4 mg/kg i.v., Q3D × 6): 0/7; growth of MCF7 tumor xenografts (tumor volume vs control) [7]: significantly inhibited |
| COc1cc2c(c(OC)c1OC)-c1ccc(OC)c(=O)cc1[C@@H](NC(C)=O)CC2 [colchicine, reference compound] | – | effect on cellular microtubule network [4]: microtubule network disappeared; effect on the cell cycle [6]: arrested at the G2/M phase |
| CC(=O)O[C@H]1C(=O)[C@@]2(C)[C@H]([C@H](OC(=O)c3ccccc3)[C@]3(O)C[C@H](OC(=O)[C@H](O)[C@@H](NC(=O)c4ccccc4)c4ccccc4)C(C)=C1C3(C)C)[C@]1(OC(C)=O)CO[C@@H]1C[C@@H]2O [paclitaxel] | – | effect on cellular microtubule network [4]: retained a spindle-shaped microtubule network |

Second part, led by results:

| GI50 [3] [nM] | SMILES | other results |
| --- | --- | --- |
| 27 to 33 | COc1ccc2c(c1)C(=O)CCN2c1nc(Cl)nc2ccccc12 [5a, 2-Chloro-4-(N-(6-methoxy-2,3-dihydro-4-oxoquinolinyl))-quinazoline] | – |
| 19 to 24 | COc1ccc2c(c1)C(=O)CCN2c1nc(C)nc2ccccc12 [5b, 4-(N-(6-Methoxy-2,3-dihydro-4-oxoquinolinyl))-2-methyl-quinazoline] | – |
| 17 to 19 | COc1ccc2c(c1)C(O)CCN2c1nc(C)nc2ccccc12 (centres unmarked) [5c, 4-(N-(4-Hydroxy-6-methoxy-1,2,3,4-tetrahydroquinolinyl))-2-methylquinazoline] | – |
| 153 to 211 | COc1ccc2c(c1)OCCN2c1nc(Cl)nc2ccccc12 [5d, 2-Chloro-4-(N-(7-methoxy-3,4-dihydro-2H-benzo[b][1,4]-oxazinyl))quinazoline] | – |
| 153 to 211 | COc1ccc2c(c1)OCCN2c1nc(C)nc2ccccc12 [5e] | – |
| 170 to 320 | COc1ccc2c(c1)CCN2c1nc(Cl)nc2ccccc12 [5h, 2-Chloro-4-(N-(5-methoxy)indolinyl)quinazoline] | – |
| 170 to 320 | COc1ccc2c(c1)CCN2c1nc(C)nc2ccccc12 [5i, 4-(N-(5-Methoxy)indolinyl)-2-methylquinazoline] | – |
| 18 to 21 | COc1ccc2c(c1)CCCCN2c1nc(C)nc2ccccc12 [5k, 4-(N-(7-Methoxy-2,3,4,5-tetrahydro-1H-benzo[b]azepinyl))-2-methylquinazoline] | – |
| 5450 to 19600 | COc1ccc2c(c1)CCCN(c1nc(Cl)nc3ccccc13)C2 [5l, 2-Chloro-4-(N-(7-methoxy-2,3,4,5-tetrahydro-1H-benzo[c]-azepinyl))quinazoline] | – |
| 5450 to 19600 | COc1ccc2c(c1)CCCN(c1nc(C)nc3ccccc13)C2 [5m, 4-(N-(7-Methoxy-2,3,4,5-tetrahydro-1H-benzo[c]azepinyl))-2-methylquinazoline] | – |
